Results published in patent US11896685B2, “Core-shell network structure comprising biopolymer and composition comprising same” (AMOREPACIFIC CORPORATION, priority 2018, dated 2024).

Tested on: human keratinocytes (HaCaT)
Assay: Scratch wound healing (skin regeneration) test, time-lapse microscopy
Format: cell-based
Conditions: after 48 hours, scratched HaCaT
Procedure: First, human keratinocytes (HaCaT) purchased from CLS (Cat No. 300493) were seeded onto a 24-well cell culture plate at a concentration of 2.0×10^5 cells/600 μL, in DMEM (Lonza, #12-604F) containing 10% fetal bovine serum (GIBCO, #16000-044) and antibiotics (Lonza, #17-602E). After culturing in a 5% CO2 incubator at 37° C. for 24 hours and replacing the medium with DMEM containing 1% fetal bovine serum, the cells were cultured further for 16 hours. After the cells were filled on the culture plate, the cells were damaged by applying a linear scratch using a scratcher (SPL, #SPL201925) and then washed twice. Core-shell network solutions comprising 0.005 wt %, 0.25 wt %, 0.5 wt % or 1 wt % of the core-shell network structure based on the total weight of the solution, were prepared in the same manner as in Example 3 (Examples 4-7). […]
The negative control group, the positive control group and the groups treated with the core-shell network structure at different concentrations were placed on a time-lapse microscope (JuLI™ Stage, NanoEnT) stage in a CO2 incubator and each well was imaged for 48 hours with 1-hour intervals. Then, wound healing area (%) was determined from the acquired images using a software analysis tool (Wound Healing tool).

How did the “wound healing area as compared to the negative control group” value turn out when madecassoside was run?
The value was 1.37 times.

And the wound healing area (negative control 30.06%)?
Its wound healing area is 41.25%.
